In US7745646B2, “Bicyclic heteroaryl inhibitors of PDE4” (Kalypsys, Inc., priority 2006, dated 2010) one finds IC50 data, which are given here for 36 compounds.

T1 sequence (Q07343 330-659 limits assumed, species assumed): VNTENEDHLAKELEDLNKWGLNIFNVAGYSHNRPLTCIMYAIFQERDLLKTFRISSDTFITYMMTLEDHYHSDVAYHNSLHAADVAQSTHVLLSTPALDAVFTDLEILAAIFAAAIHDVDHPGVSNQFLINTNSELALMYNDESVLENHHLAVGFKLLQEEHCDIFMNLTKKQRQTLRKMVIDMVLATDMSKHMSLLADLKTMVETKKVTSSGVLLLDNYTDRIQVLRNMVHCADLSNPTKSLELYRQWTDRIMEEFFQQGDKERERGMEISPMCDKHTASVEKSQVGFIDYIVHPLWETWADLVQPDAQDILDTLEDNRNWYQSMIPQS

The assay concerns the target T1, PDE4B (Homo sapiens, UniProt Q07343).
T1 construct: hex-histidine (His6) (N); made in house
The experiment in a line: Novel coupled PDE/AK bioluminescent assay, PDE4B inhibition. It is filed as biochemical. The following applies: PDE4B catalytic domain.
Excerpt: We developed a novel coupled PDE/AK bioluminescent high-throughput assay to measure the activity of phosphodiesterases. In the PDE/AK assay, the AMP produced from the hydrolysis of cAMP by phosphodiesterase is converted to adenosine diphosphate (ADP) by the phosphotransferase activity of adenylate kinase (also known as ADK or myokinase). Adenylate kinase will catalyze the conversion of 1 mole of AMP and 1 mole of ATP into 2 moles of ADP. Thus the conversion of AMP to ADP will result in the subsequent loss of ATP. The decrease in ATP concentration can be monitored as light output using luciferase in a reaction that requires ATP to produce light. The PDE/AK assay uses luciferase, which catalyzes the production of light from ATP present in the reaction mix. The amount of emitted light is inversely proportional to the level of AMP present in the reaction. Test compounds are incubated with the phosphodiesterases and phosphodiesterase inhibitors will decrease the rate of cAMP hydrolysis and decrease the subsequent production of AMP.
A novel coupled PDE/AK assay was utilized to measure the inhibitory activity of compounds on PDE isoforms. The catalytic domain of PDE4B was fused to an amino-terminus hex-histidine affinity tag and purified. PDE4B enzyme was incubated with compounds for 10 minutes. Cyclic AMP substrate, ATP and adenylate kinase were then added to the PDE enzyme mix and incubated for 45 minutes at room temperature. A commercial ATP detection assay, Perkin Elmer's easyLite ATP detection reagent, was then added to measure the relative amount of ATP present in the reaction. After 10 minute incubation, the luminescent signal was quantitated with either the Perkin Elmer Viewlux or Molecular Devices Acquest or Analyst.
The term IC50 denotes the concentration at which inhibition is half-maximal. A high value points to weaker potency. As to `COc1ccc2c(Nc3c(Cl)cncc3Cl)cc(=O)oc2c1OCCCCC(=O)O` [Example 43, 5-(4-(3,5-Dichloropyridin-4-ylamino)-7-methoxy-2-oxo-2H-chromen-8-yloxy)pentanoic acid], the IC50 is below 1000 nM. For `COc1ccc2c(Nc3c(Cl)cncc3Cl)cc(=O)oc2c1OCCCCCC(=O)O` [Example 44, 6-(4-(3,5-Dichloropyridin-4-ylamino)-7-methoxy-2-oxo-2H-chromen-8-yloxy)hexanoic acid], the half-maximal inhibitory concentration (IC50) was below 1000 nM. Regarding `COC(=O)COc1c(OC)ccc2c(Nc3c(Cl)cncc3Cl)cc(=O)oc12` [Example 45, Methyl 2-(4-(3,5-dichloropyridin-4-ylamino)-7-methoxy-2-oxo-2H-chromen-8-yloxy)acetate], the IC50 is below 1000 nM. The compound `CCOC(=O)COc1c(OC)ccc2c(Nc3c(Cl)cncc3Cl)cc(=O)oc12` [Example 46, Ethyl 2-(4-(3,5-dichloropyridin-4-ylamino)-7-methoxy-2-oxo-2H-chromen-8-yloxy)acetate] yielded an IC50 below 1000 nM. In the case of `COc1ccc2c(Nc3c(Cl)cncc3Cl)cc(=O)oc2c1OCCC1CCCCC1` [Example 47, 8-(2-Cyclohexylethoxy)-4-(3,5-dichloropyridin-4-ylamino)-7-methoxy-2H-chromen-2-one] it was below 1000 nM; in that of `COc1ccc2c(Nc3c(Cl)cncc3Cl)cc(=O)oc2c1OCCCc1ccccc1` [Example 48, 4-(3,5-Dichloropyridin-4-ylamino)-7-methoxy-8-(3-phenylpropoxy)-2H-chromen-2-one], below 1000 nM.

In turn, `COc1ccc2c(Nc3c(Cl)cncc3Cl)cc(=O)oc2c1OCC(=O)O` [Example 49, 2-(4-(3,5-Dichloropyridin-4-ylamino)-7-methoxy-2-oxo-2H-chromen-8-yloxy)acetic acid] had an IC50 above 1000 nM. In the case of `COc1ccc2c(Nc3c(Cl)cncc3Cl)cc(=O)oc2c1OC[C@@H]1OC(=O)[C@H]2OC(C)(C)O[C@@H]12` [Example 50, 4-(3,5-Dichloropyridin-4-ylamino)-8-(((3aS,4S,6aS)-2,2-dimethyl-6-oxotetrahydrofuro[3,4-d][1,3]dioxol-4-yl)methoxy)-7-methoxy-2H-chromen-2-one] it was below 1000 nM. In the case of `COc1ccc2c(Nc3c(Cl)cncc3Cl)cc(=O)oc2c1OC[C@@H]1OC(=O)[C@@H](O)[C@H]1O` [Example 51, 4-(3,5-Dichloropyridin-4-ylamino)-8-(((2S,3R,4S)-3,4-dihydroxy-5-oxotetrahydrofuran-2-yl)methoxy)-7-methoxy-2H-chromen-2-one], the IC50 was below 1000 nM. In the case of `COc1ccc2c(Nc3c(Cl)cncc3Cl)cc(=O)oc2c1OCCCCCN1CCN(C)CC1` [Example 52, 4-(3,5-Dichloropyridin-4-ylamino)-7-methoxy-8-(5-(4-methylpiperazin-1-yl)pentyloxy)-2H-chromen-2-one], the IC50 was below 1000 nM. Compound `COc1ccc2c(Nc3c(Cl)cncc3Cl)cc(=O)oc2c1OCCCCCN1CCOCC1` [Example 53, 4-(3,5-Dichloropyridin-4-ylamino)-7-methoxy-8-(5-morpholinopentyloxy)-2H-chromen-2-one] came in with an IC50 below 1000 nM. As to `COc1ccc2c(Nc3c(Cl)cncc3Cl)cc(=O)oc2c1OCCCCCN1CCCCC1` [Example 54, 4-(3,5-Dichloropyridin-4-ylamino)-7-methoxy-8-(5-(piperidin-1-yl)pentyloxy)-2H-chromen-2-one], the IC50 is below 1000 nM. With `COc1ccc2c(Nc3c(Cl)cncc3Cl)cc(=O)oc2c1OCCCCCN1CCCC1` [Example 55, 4-(3,5-Dichloropyridin-4-ylamino)-7-methoxy-8-(5-(pyrrolidin-1-yl)pentyloxy)-2H-chromen-2-one], the IC50 is below 1000 nM. In the case of `COc1ccc2c(Nc3c(Cl)cncc3Cl)cc(=O)oc2c1OCC(N)=O` [Example 56, 2-(4-(3,5-Dichloropyridin-4-ylamino)-7-methoxy-2-oxo-2H-chromen-8-yloxy)acetamide] it was below 1000 nM; in that of `COc1ccc2c(Nc3c(Cl)cncc3Cl)cc(=O)oc2c1OCCCCCC#N` [Example 57, 6-(4-(3,5-Dichloropyridin-4-ylamino)-7-methoxy-2-oxo-2H-chromen-8-yloxy)hexanenitrile], below 1000 nM; in that of `COC(=O)CCCCCOc1c(OC)ccc2c(Nc3c(Cl)cncc3Cl)cc(=O)oc12` [Example 58, Methyl 6-(4-(3,5-dichloropyridin-4-ylamino)-7-methoxy-2-oxo-2H-chromen-8-yloxy)hexanoate], below 1000 nM. In the case of `COC(=O)CCCCCOc1c(OC)ccc2c(N(C)c3c(Cl)cncc3Cl)cc(=O)oc12` [Example 59, Methyl 6-(4-((3,5-dichloropyridin-4-yl)(methyl)amino)-7-methoxy-2-oxo-2H-chromen-8-yloxy)hexanoate] it was above 1000 nM; in that of `COc1ccc2c(Nc3c(Cl)cncc3Cl)cc(=O)oc2c1O[C@@H]1O[C@H](COC(C)=O)[C@@H](OC(C)=O)[C@H](OC(C)=O)[C@H]1OC(C)=O` [Example 60, (2R,3R,4S,5R,6S)-2-(Acetoxymethyl)-6-(4-(3,5-dichloropyridin-4-ylamino)-7-methoxy-2-oxo-2H-chromen-8-yloxy)tetrahydro-2H-pyran-3,4,5-triyl triacetate], below 1000 nM. In the case of `COc1ccc2c(Nc3c(Cl)cncc3Cl)cc(=O)oc2c1OCCCCCOC(C)=O` [Example 61, 5-(4-(3,5-Dichloropyridin-4-ylamino)-7-methoxy-2-oxo-2H-chromen-8-yloxy)pentyl acetate] it was below 1000 nM. `COc1ccc2c(Nc3c(Cl)cncc3Cl)cc(=O)oc2c1OCCOCCBr` [Example 62, 8-(2-(2-Bromoethoxy)ethoxy)-4-(3,5-dichloropyridin-4-ylamino)-7-methoxy-2H-chromen-2-one] gave an IC50 below 1000 nM.

Take `COc1ccc2c(Nc3c(Cl)cncc3Cl)cc(=O)oc2c1OCCCCCc1nn[nH]n1` [Example 63, 8-(5-(2H-Tetrazol-5-yl)pentyloxy)-4-(3,5-dichloropyridin-4-ylamino)-7-methoxy-2H-chromen-2-one]: the half-maximal inhibitory concentration (IC50) is below 1000 nM. The figure for `COc1ccc2c(Nc3c(Cl)cncc3Cl)cc(=O)oc2c1OC` [Example 64, 4-(3,5-Dichloropyridin-4-ylamino)-7,8-dimethoxy-2H-chromen-2-one] is below 1000 nM. The compound `COc1ccc2c(Nc3c(Cl)cncc3Cl)cc(=O)oc2c1OCCCCCCC(=O)O` [Example 65, 7-(4-(3,5-Dichloropyridin-4-ylamino)-7-methoxy-2-oxo-2H-chromen-8-yloxy)heptanoic acid] came in with an IC50 below 1000 nM.

With `COc1ccc2c(Nc3c(Cl)cncc3Cl)cc(=O)oc2c1OCCCCCCCC(=O)O` [Example 66, 8-(4-(3,5-Dichloropyridin-4-ylamino)-7-methoxy-2-oxo-2H-chromen-8-yloxy)octanoic acid], the IC50 is below 1000 nM. For the compound `COc1ccc2c(Nc3c(Cl)cncc3Cl)cc(=O)oc2c1OCCCCCCCCC(=O)O` [Example 67, 9-(4-(3,5-Dichloropyridin-4-ylamino)-7-methoxy-2-oxo-2H-chromen-8-yloxy)nonanoic acid], the IC50 was below 1000 nM. Consider `COc1ccc2c(Nc3c(Cl)cncc3Cl)cc(=O)oc2c1OCCCCCN` [Example 68, 8-(5-Aminopentyloxy)-4-(3,5-dichloropyridin-4-ylamino)-7-methoxy-2H-chromen-2-one], for which the IC50 is below 1000 nM. In the case of `COc1ccc2c(Nc3c(Cl)cncc3Cl)cc(=O)oc2c1OCCOCCN(C)C` [Example 69, 4-(3,5-Dichloropyridin-4-ylamino)-8-(2-(2-(dimethylamino)ethoxy)ethoxy)-7-methoxy-2H-chromen-2-one] it was below 1000 nM. The figure for `COc1ccc2c(Nc3c(Cl)cncc3Cl)cc(=O)oc2c1OCCCCN1CCN(C)CC1` [Example 70, 4-(3,5-Dichloropyridin-4-ylamino)-7-methoxy-8-(4-(4-methylpiperazin-1-yl)butoxy)-2H-chromen-2-one] is below 1000 nM. In the case of `COc1ccc2c(Nc3c(Cl)cncc3Cl)cc(=O)oc2c1OCCCCN1CCOCC1` [Example 71, 4-(3,5-Dichloropyridin-4-ylamino)-7-methoxy-8-(4-morpholinobutoxy)-2H-chromen-2-one] it was below 1000 nM; in that of `COc1ccc2c(Nc3c(Cl)cncc3Cl)cc(=O)oc2c1OCCCCCO` [Example 72, 4-(3,5-Dichloropyridin-4-ylamino)-8-(5-hydroxypentyloxy)-7-methoxy-2H-chromen-2-one], below 1000 nM; in that of `COc1ccc2c(Nc3c(Cl)cncc3Cl)cc(=O)oc2c1OCCCCO` [Example 73, 4-(3,5-Dichloropyridin-4-ylamino)-8-(4-hydroxybutoxy)-7-methoxy-2H-chromen-2-one], below 1000 nM.

`COc1ccc2c(Nc3c(Cl)cncc3Cl)cc(=O)oc2c1OCCCCCOc1c(OC)ccc2c(Nc3c(Cl)cncc3Cl)cc(=O)oc12` [Example 74, 8,8′-(Pentane-1,5-diylbis(oxy))bis(4-(3,5-dichloropyridin-4-ylamino)-7-methoxy-2H-chromen-2-one)] showed an IC50 below 1000 nM.

As for `COc1ccc2c(Nc3c(Cl)cncc3Cl)cc(=O)oc2c1OCCCCCO[C@@H]1O[C@H](COC(C)=O)[C@@H](OC(C)=O)[C@H](OC(C)=O)[C@H]1OC(C)=O` [Example 75, (2R,3R,4S,5R,6R)-2-(Acetoxymethyl)-6-(5-(4-(3,5-dichloropyridin-4-ylamino)-7-methoxy-2-oxo-2H-chromen-8-yloxy)pentyloxy)tetrahydro-2H-pyran-3,4,5-triyl triacetate], the half-inhibitory concentration (IC50) was below 1000 nM. For `COc1ccc2c(Nc3c(Cl)cncc3Cl)cc(=O)oc2c1OC/C=C\CO` [Example 76, (Z)-4-(3,5-Dichloropyridin-4-ylamino)-8-(4-hydroxybut-2-enyloxy)-7-methoxy-2H-chromen-2-one], the 50% inhibitory concentration (IC50) is below 1000 nM. As to `COc1ccc2c(Nc3c(Cl)cncc3Cl)cc(=O)oc2c1O[C@@H]1O[C@H](CO)[C@@H](O)[C@H](O)[C@H]1O` [Example 77, 4-(3,5-Dichloropyridin-4-ylamino)-7-methoxy-8-((2S,3R,4S,5S,6R)-3,4,5-trihydroxy-6-(hydroxymethyl)tetrahydro-2H-pyran-2-yloxy)-2H-chromen-2-one], the IC50 was above 1000 nM. For `COc1ccc2c(Nc3c(Cl)cncc3Cl)cc(=O)oc2c1OCCCCCC(N)=O` [Example 78, 6-(4-(3,5-Dichloropyridin-4-ylamino)-7-methoxy-2-oxo-2H-chromen-8-yloxy)hexanamide], the IC50 is below 1000 nM.
